Experimental data: BindingDB's records for doi:10.1021/jm00103a008 (National Institute of Diabetes and Digestive and Kidney …, 1993)

Assay: Compound was evaluated for its ability to displace [3H](+)-pentazocine from sigma receptor in Guinea pig brain
Compound c1ccc([C@]2(N3CCCCC3)CC[C@H]3C[C@H]32)cc1 has a Ki of 4.45 µM.
c1ccc([C@]2(N3CCCCC3)CC[C@@H]3C[C@@H]32)cc1 gave a Ki of 7.28 µM.
c1ccc([C@@]2(N3CCCCC3)CC[C@H]3C[C@H]32)cc1 gave a Ki of 1.13 µM.
